How the values were obtained:
Assay type in all cases: cell-based, human
[1] = system: hOB-01-C1-PS-09 cells; experiment: Hepatocyte growth factor (HGF) secretion by hOB-01-C1-PS-09 cells; details: 39° C.
[2] = system: β-catenin; experiment: Western blot analysis for β-catenin; details: hOB-03-CE6 cells, 100 nM, 24 hr
Protocol: FIG. 15 is an autoradiogram of a Western blot of whole cell extracts isolated from hOB-03-CE6 cells treated with either control or PGE2 for 24 hr. The immunoblot was probed with a monoclonal antibody to β-catenin, which has a molecular weight of 92,000.
In order to determine if the up-regulation of SFRP-1/FRP-1/SARP-2 gene expression results in an antagonism of the Wnt signaling pathway, hOB-03-CE6 cells were treated with PGE2 and the resulting cells probed with β-catenin monoclonal antibody. Overexpression of Wnt proteins in cells up-regulates a signaling protein known as β-catenin (reviewed in Moon et al. 1997 Cell 88: 725–728; Barth et al. 1997 Curr. Opin. Cell Biol. 9: 683–690; and Nusse 1997 Cell 89: 321–323). […] Therefore, hOB-03-CE6 cells were plated and treated with PGE2 as described in Example 1, except that total cellular protein was extracted and a Western blot analysis for β-catenin was performed using a monoclonal antibody to the protein (Transduction Laboratories) as previously described (Bodine et al. 1996 Endocrinology 137: 4592–4604; Melkonyan et al. 1997 Proc. Natl. Acad. Sci. USA 94: 13636–13641). […] Both human and rat SFRP-1/FRP-1/SARP-2, as well as human Frzb-1/FrzB/Fritz, suppressed TCF-luciferase activity in the hOB cells.

[3] = system: hOB-03-C5 cells; experiment: Apoptosis by flow cytometry using annexin V-FITC and propidium iodide
Protocol: Apoptosis was measured by flow cytometry using annexin V-FITC.
(§1) The hypothesis that up-regulation of SFRP-1/FRP-1/SARP-2 gene expression accelerates hOB cell death, while down-regulation of SFRP-1/FRP-1/SARP-2 gene expression suppresses cell death, was next examined. […] The next day, the 6-well plates were rinsed with PBS, placed in BSA-medium, and treated at 39° C. in the absence or presence of either 100 nM PGE2 (in order to up-regulate SFRP-1/FRP-1/SARP-2 steady-state mRNA levels; panels A & B), or 0.01–1.0 nM TGF-β1 (in order to down-regulate SFRP-1/FRP-1/SARP-2 message levels; panel C). Incubating cells in serum-free medium is a common method to induce apoptosis (Melkonyan et al. 1997 Proc. Natl. Acad. Sci. USA 94: 13636–13641), and the hOB-03-C5, hOB-03-CE6 and hOB-01-C1 cell lines all stopped dividing and gradually died under these conditions. […] In contrast, treatment of the hOB-01-C1 cells with TGF-β1 increased cell viability about 2-fold in a dose-dependent manner. […] This observation was consistent with the induction of apoptosis, which is known to result in cytoplasmic blebbing, the loss of water and a decrease in cell volume (Mesner and Kaufmann 1997 in Advances in Pharmacology, vol. 41, pp. 57–88). […] Finally, treatment of the hOB-03-C5 cells with PGE2 increased annexin V (a specific marker for apoptosis) binding to the cell as measured by flow cytometry (FIG. 11).

[4] = system: hOB-03-C5 cells; experiment: Generation of histone-associated DNA fragments
Protocol: as §1

Molecule | HGF secretion [1] | β-catenin protein levels [2] | annexin V binding to the cell [3] | number of apoptotic cells (annexin V but not propidium iodide) ([3]; increasing concentrations) | number of necrotic cells (annexin V and propidium iodide) ([3]; increasing concentrations) | number of viable cells (no annexin V or propidium iodide staining) ([3]; increasing concentrations) | histone-associated DNA fragments [4]
human transforming growth factor-β1 [TGF-β1] | dose-dependent decrease | – | – | – | – | – | –
CCCCC[C@H](O)/C=C/[C@H]1[C@H](O)CC(=O)[C@@H]1C/C=C\CCCC(=O)O [PGE2, prostaglandin E2] | – | down-regulated | increased | increases | increases | declines | resulted in the generation of histone-associated DNA fragments

Reference: patent US7098372B1, “Pharmaceutical compositions and methods of using secreted frizzled related protein” (Wyeth, priority 1999, dated 2006)
